Our source for the IC50 values is patent US9914737B2, “Triazolopyrimidinone or triazolopyridinone derivatives, and use thereof” (ST PHARM CO., LTD., priority 2014, dated 2018).

Counter-ions that a name gives are not always drawn.

The target of one assay is T1, tankyrase 1 (Homo sapiens, UniProt O95271).
T1 construct: purchased Trevigen 4700-096-K
T1 sequence (O95271 1-1327): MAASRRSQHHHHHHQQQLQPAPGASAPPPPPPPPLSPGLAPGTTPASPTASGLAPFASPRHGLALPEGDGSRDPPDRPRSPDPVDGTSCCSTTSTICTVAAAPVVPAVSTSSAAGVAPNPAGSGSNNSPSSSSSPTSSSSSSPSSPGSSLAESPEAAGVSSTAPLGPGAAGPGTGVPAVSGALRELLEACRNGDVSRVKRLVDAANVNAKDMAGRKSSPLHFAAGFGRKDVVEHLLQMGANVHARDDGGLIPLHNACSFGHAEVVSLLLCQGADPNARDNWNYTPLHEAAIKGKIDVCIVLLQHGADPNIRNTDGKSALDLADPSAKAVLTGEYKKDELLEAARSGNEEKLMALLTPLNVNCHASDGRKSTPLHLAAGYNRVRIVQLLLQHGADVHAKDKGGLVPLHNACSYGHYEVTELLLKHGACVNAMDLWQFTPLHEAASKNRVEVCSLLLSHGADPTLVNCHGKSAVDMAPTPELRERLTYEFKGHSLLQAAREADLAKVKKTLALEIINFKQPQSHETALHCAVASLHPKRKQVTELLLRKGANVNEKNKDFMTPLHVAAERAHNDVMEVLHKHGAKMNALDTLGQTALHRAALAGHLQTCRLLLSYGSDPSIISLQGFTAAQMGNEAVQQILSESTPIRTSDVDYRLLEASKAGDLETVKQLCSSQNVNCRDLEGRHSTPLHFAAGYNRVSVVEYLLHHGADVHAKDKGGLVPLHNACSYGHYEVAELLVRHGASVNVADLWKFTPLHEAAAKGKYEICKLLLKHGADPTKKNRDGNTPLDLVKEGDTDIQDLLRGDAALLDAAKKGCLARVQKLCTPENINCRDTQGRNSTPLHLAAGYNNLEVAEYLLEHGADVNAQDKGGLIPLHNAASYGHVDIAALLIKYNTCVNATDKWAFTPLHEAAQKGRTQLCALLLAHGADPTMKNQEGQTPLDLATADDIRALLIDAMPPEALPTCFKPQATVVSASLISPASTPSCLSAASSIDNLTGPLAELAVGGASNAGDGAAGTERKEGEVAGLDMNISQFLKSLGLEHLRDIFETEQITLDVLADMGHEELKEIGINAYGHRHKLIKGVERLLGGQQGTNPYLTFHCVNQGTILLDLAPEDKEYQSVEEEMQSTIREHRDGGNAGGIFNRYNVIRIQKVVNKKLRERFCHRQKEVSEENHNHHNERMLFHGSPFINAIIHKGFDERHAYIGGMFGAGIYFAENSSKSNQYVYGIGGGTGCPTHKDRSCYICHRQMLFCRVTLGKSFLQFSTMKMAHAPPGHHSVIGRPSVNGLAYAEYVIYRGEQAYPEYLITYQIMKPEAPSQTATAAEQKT
The assay can be described thus: Analysis of activity of tankyrase 1 (Trevigen kit, ELISA absorbance at 450 nm). The class given is biochemical.
Conditions: not given
The protocol: Activities of novel compounds synthesized according to Examples 1 to 72 against tankyrase 1 were analyzed using a Trevigen kit (Cat. No. 4700-096-K). Poly PAR histone protein-coated 96-well plate, anti-PAR monoclonal antibody and goat anti-mouse IgG-HRP were used for measurement of absorbance by ELISA method. Specifically, 20× I-PAR assay buffer was diluted to 1× by adding water, and 50 μL of the diluted buffer was added to each well of the 96-well plate followed by reacting at rt for 30 min. Then, the supernatant was completely removed from each well and 10 μL of 1× I-PAR assay buffer and 15 μL of assay substrate were added to each well along with 1 μL of a 50× solution of inhibitors to be tested, which were the compounds obtained in the Examples 1 to 72. 10 mUnits/μL of tankyrase 1 enzyme was diluted 50-fold with 1× I-PAR assay buffer and 25 μL of the diluted enzyme was added to each well and reacted while stirring at rt for 30 min. One without any compound of the present invention was used as a positive control and another containing 1× I-PAR assay buffer with the same volume instead of tankyrase 1 enzyme was used as a negative control. Upon completion of the reaction, 200 μL of PBSX, which was prepared by adding 0.1% triton X-100 to PBS, was added and removed and this washing process was repeated twice. Washing was repeated twice more using PBS in the same manner. 5× antibody diluent was diluted with distilled water to 1× concentration, 50 μL of the diluted goat anti-mouse IgG-HRP to 1/2000 was added to each well and reacted while stirring at rt for 30 min. Washes were carried out twice using PBSX and PBS, respectively. After adding 50 μL of TACS-sapphire to each well of the plate, the plate was blocked from light to react for 10 min to 15 min and the color of the reaction solution turned blue. To stop the reaction, 50 μL of 0.2N HCl was added to turn the solution yellow. Finally, the absorbance of the resulting solution was measured at 450 nm.
For orientation: In an ELISA, binding on a coated surface is turned into a signal by an enzyme label.
As usually defined, the IC50 is the concentration that inhibits the measured activity by half. The compound `Cn1nnc2c(=O)[nH]c(N3CCN(c4c(F)cc(OC5COC5)cc4F)CC3)cc21` [compound 62, 6-(4-(2,6-Difluoro-4-(oxetan-3-yloxy)phenyl)piperazin-1-yl)-1-methyl-1H-[1,2,3]triazolo[4,5-c]pyridin-4(5H)-one] came in with an IC50 of 22.1 nM.

The assay is the same for the next values; noted with them: tankyrase 1 enzyme, Trevigen kit Cat. No. 4700-096-K, 30 min at rt; read-out: TNKS1 (IC50).
On to `CN(C)CCOc1cc(F)c(N2CCN(c3cc4c(nnn4C)c(=O)[nH]3)CC2)c(F)c1` [compound 56, 6-(4-(4-(2-(Dimethylamino)ethoxy)-2,6-difluorophenyl)piperazin-1-yl)-1-methyl-1H-[1,2,3]triazolo[4,5-c]pyridin-4(5H)-one], for which the IC50 was 27.5 nM.

Turning to `Cn1nnc2c(=O)[nH]c(N3CCN(c4c(F)cc(OCCO)cc4F)CC3)cc21` [compound 57, 6-(4-(2,6-Difluoro-4-(2-hydroxyethoxy)phenyl)piperazin-1-yl)-1-methyl-1H[1,2,3]triazolo[4,5-c]pyridin-4(5H)-one], the IC50 came out at 7.98 nM.

Regarding `C[C@H](N)C(=O)OCCOc1cc(F)c(N2CCN(c3cc4c(nnn4C)c(=O)[nH]3)CC2)c(F)c1` [compound 58, (S)-2-(3,5-difluoro-4-(4-(1-methyl-4-oxo-4,5-dihydro-1H-[1,2,3]triazolo[4,5-c]pyridin-6-yl)piperazin-1-yl)phenoxy)ethyl2-aminopropanoate hydrochloride], the IC50 turned out to be 13.4 nM.

As to `Cn1nnc2c(=O)[nH]c(N3CCN(c4c(F)cc(OCC(O)CO)cc4F)CC3)cc21` (centres unmarked) [compound 59, 6-(4-(4-(2,3-Dihydroxypropoxy)-2,6-difluorophenyl)piperazin-1-yl)-1-methyl-1H-[1,2,3]triazolo[4,5-c]pyridin-4(5H)-one], the IC50 was 16 nM.

In the case of `Cn1nnc2c(=O)[nH]c(N3CCN(c4c(F)cc(CN5CCOCC5)cc4F)CC3)cc21` [compound 60, 6-(4-(2,6-Difluoro-4-(morpholinomethyl)phenyl)piperazin-1-yl)-1-methyl-1H-[1,2,3]triazolo[4,5-c]pyridin-4(5H)-one], the IC50 was 25.8 nM.

With `CN1CCN(Cc2cc(F)c(N3CCN(c4cc5c(nnn5C)c(=O)[nH]4)CC3)c(F)c2)CC1` [compound 61, 6-(4-(2,6-Difluoro-4-((4-methylpiperazin-1-yl)methyl)phenyl)piperazin-1-yl)-1-methyl-1H-[1,2,3]triazolo[4,5-c]pyridin-4(5H)-one], the IC50 was 28.2 nM.

On to `CC(O)c1cc(F)c(N2CCN(c3cc4c(nnn4C)c(=O)[nH]3)CC2)c(F)c1` (centres unmarked) [compound 63, 6-(4-(2,6-Difluoro-4-(1-hydroxyethyl)phenyl)piperazin-1-yl)-1-methyl-1H[1,2,3]triazolo[4,5-c]pyridin-4(5H)-one], for which the IC50 came out at 27.3 nM.

As for `COC(C)c1cc(F)c(N2CCN(c3cc4c(nnn4C)c(=O)[nH]3)CC2)c(F)c1` (centres unmarked) [compound 64, 6-(4-(2,6-Difluoro-4-(1-methoxyethyl)phenyl)piperazin-1-yl)-1-methyl-1H[1,2,3]triazolo[4,5-c]pyridin-4(5H)-one], the IC50 worked out at 31.2 nM.

With `COCCN(C)Cc1cc(F)c(N2CCN(c3cc4c(nnn4C)c(=O)[nH]3)CC2)c(F)c1` [compound 65, 6-(4-(2,6-Difluoro-4-(((2-methoxyethyl)(methyl)amino)methyl)phenyl)piperazin-1-yl)-1-methyl-1H-[1,2,3]triazolo[4,5-c]pyridin-4(5H)-one], the IC50 was 40.2 nM.

Consider `Cn1nnc(C2CCN(c3cc4c(nnn4C)c(=O)[nH]3)CC2)n1` [compound 66, 1-Methyl-6-(4-(2-methyl-2H-tetrazol-5-yl)piperidin-1-yl)-1H-[1,2,3]triazolo[4,5-c]pyridin-4(5H)-one], for which the IC50 was 331 nM.

Turning to `Cn1nnc2c(=O)[nH]c(N3CCN(c4c(F)cc(OCCN5CCCC5)cc4F)CC3)cc21` [compound 67, 6-(4-(2,6-Difluoro-4-(2-(pyrrolidin-1-yl)ethoxy)phenyl)piperazin-1-yl)-1-methyl-1H-[1,2,3]triazolo[4,5-c]pyridin-4(5H)-one], the IC50 came to 18.6 nM.

For the compound `CN1CCN(CCOc2cc(F)c(N3CCN(c4cc5c(nnn5C)c(=O)[nH]4)CC3)c(F)c2)CC1` [compound 68, 6-(4-(2,6-Difluoro-4-(2-(4-methylpiperazin-1-yl)ethoxy)phenyl)piperazin-1-yl)-1-methyl-1H-[1,2,3]triazolo[4,5-c]pyridin-4(5H)-one], the IC50 was 14.2 nM.

For the compound `Cn1nnc2c(=O)[nH]c(N3CCN(c4c(F)cc(OCCCN5CCCCC5)cc4F)CC3)cc21` [compound 69, 6-(4-(2,6-Difluoro-4-(3-(piperidin-1-yl)propoxy)phenyl)piperazin-1-yl)-1-methyl-1H-[1,2,3]triazolo[4,5-c]pyridin-4(5H)-one], the IC50 came to 19.1 nM.

As to `Cn1nnc2c(=O)[nH]c(N3CCN(c4c(F)cc(OCC(=O)N5CCCC5)cc4F)CC3)cc21` [compound 70, 6-(4-(2,6-Difluoro-4-(2-oxo-2-(pyrrolidin-1-yl)ethoxy)phenyl)piperazin-1-yl)-1-methyl-1H-[1,2,3]triazolo[4,5-c]pyridin-4(5H)-one], the IC50 was found to be 15.6 nM.

Consider `Cn1nnc2c(=O)[nH]c(N3CCN(c4c(F)cc(OCCN)cc4F)CC3)cc21` [compound 71, 6-(4-(4-(2-Aminoethoxy)-2,6-difluorophenyl)piperazin-1-yl)-1-methyl-1H-[1,2,3]triazolo[4,5-c]pyridin-4(5H)-one], for which the IC50 was found to be 24.9 nM.

Take `Cn1nnc2c(=O)[nH]c(N3CCN(c4c(F)cc(OCCN5CCC(N)CC5)cc4F)CC3)cc21` [compound 72, 6-(4-(4-(2-(4-Aminopiperidin-1-yl)ethoxy)-2,6-difluorophenyl)piperazin-1-yl)-1-methyl-1H-[1,2,3]triazolo[4,5-c]pyridin-4(5H)-one]: the IC50 came to 7.31 nM.
